Assay results taken from US20130165734A1, “TIME-DOMAIN TRANSDUCTION SIGNALS AND METHODS OF THEIR PRODUCTION AND USE” (Nativis, Inc., priority 2009, published 2013).

Columns and labels:
[1] = test system: U87 glioblastoma cells; assay: intracranial U87 glioblastoma tumor study in mice; format: in vivo; conditions: tumor-bearing animals treated with taxol compound over the same 23 day period
[2] = test system: tubulin; assay: electron microscopy of tubulin assay samples; format: biochemical; conditions: 10 minutes exposure to 4 μM taxol
Source text: The assay samples from above were examined by electron microscopy to confirm that the nature of the microtubule polymers formed in the assay, either by the addition of taxol or the taxol-derived time-domain signal. FIGS. 10A-10F are photo electron micrographs, taken at 21,000× and 52,000× magnification, of a tubulin suspension for untreated control (FIGS. 10A and 10B), cremaphore alone, FIGS. 10C, 10D), and the tubulin suspension exposed to the magnetic field of a white-noise signal. Each sample was allowed to incubate in the system cell for 10 minutes under the conditions described, then placed on ice and immediately after cooling, placed on an EM grid and fixed for with stain. No evidence of significant tubulin formation is observed in any of these samples.
FIGS. 12A-12D show the morphology of the tubulin assay samples after 10 minutes exposure to 4 μM taxol, where the samples were cooled after 10 minutes and prepared for EM as above.
FIGS. 13A-13D show the morphology of the tubulin assay samples after 10 minutes exposure to the above M2(3) taxol-derived time-domain signal. 4 μM taxol, where the samples were cooled after 10 minutes and prepared for EM as above.

[3] = observation of side effects in treated tumor-bearing animals; format: in vivo, mice; conditions: animals treated with taxol; preliminary observations
Source text: Another potential advantage of signal therapy over the conventional drug therapy is the potential for reduced side effects.

[4] = test system: tubulin; assay: in vitro tubulin polymerization (aggregation) assay, absorbance at 340 nm; format: biochemical; conditions: 4 μM taxol, tubulin 1.5 mg/ml in GPEM buffer, first ten minutes
Protocol: The M2(3) and a number of other high-score signals were tested for their ability to stabilize tubulin polymerization, employing the transduction system described above with reference to FIG. 7A. […] This assay has been described, for example, in Shelanski, M. L., Gaskin, F. and Cantor, C. R. (1973). Microtubule assembly in the absence of added nucleotides. Proc. Natl. Acad. Sci. U.S.A. 70, 765-768; and Lee, J. C. and Timasheff, S. N. (1977). In vitro reconstitution of calf brain microtubules: effects of solution variable. Biochemistry, 16, 1754-1762.
The M2(3) and a number of other high-score taxol signals were tested for their ability to stabilize tubulin polymerization. […] Change in optical absorption at 340 nm was measured continuously for each sample, and the OD340 data was used to calculate a rate of tubulin polymerization (dA/minute at 340 nm) at each one minute interval during the transduction study.
The results of the study, expressed as rate or tubulin polymerization over the first ten minutes of the study, are shown in FIGS. 9A and 9B.

## CC(=O)O[C@H]1C(=O)[C@@]2(C)[C@H]([C@H](OC(=O)c3ccccc3)[C@]3(O)C[C@H](OC(=O)[C@H](O)[C@@H](NC(=O)c4ccccc4)c4ccccc4)C(C)=C1C3(C)C)[C@]1(OC(C)=O)CO[C@@H]1C[C@@H]2O [taxol, taxol (paclitaxel)]
[1]
  tumor volume result compared with signal treatment: A similar result was seen
[2]
  morphology of tubulin assay samples (EM): A number of well-developed microtubular structures, including multi-lamellar structures are seen
[3]
  side effects (activity, behavior, appetite): showed the expected signs of lethargy and loss of appetite
[4]
  increase in absorbance (tubulin polymerization) over the tubulin control: increased more than twofold
